Drawing on PubChem BioAssay (NCI), this text covers TGI for 13 molecules.

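Where inhibition never reached the appropriate level, the endpoint shown equals the highest concentration tested. Otherwise, values were interpolated linearly from a five-concentration, 48-hour dose response in 96-well plates. TGI denotes the concentration required for complete inhibition of growth.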

Common to all, as to assay: DTP human tumour cell line panel, 48 h
Assay [1] has as its system 786-0 renal.
Assay [2] deals with LOX IMVI melanoma.
Assay [3] deals with MDA-N.
The subject of assay [4] is HOP-92 NSCLC.
The test system of assay [5] is SR leukemia.
Assay [6] relates to MDA-MB-435.
Assay [7] relates to MOLT-4 leukemia.
Assay [8] relates to EKVX NSCLC.
For assay [9], the system named is SN12C renal.
For assay [10], the system named is HCT-15 colon.
Assay [11] deals with CCRF-CEM leukemia.

For orientation: TGI means the concentration at which net growth stops. Read a high TGI as less potent growth arrest. `O=C(O)C(CCc1ccccn1)c1ccccc1` (configuration not stated): the TGI in [1], in assay [2], in [3], in assay [4], in assay [5] and in [6] was more than 100 µM in each case. Also, the TGI in assay [7], in [8], in assay [9] and in assay [10] was more than 100 µM in each case.
`CN(CCc1ccc(Cl)c(Cl)c1)[C@H]1CCCC[C@H]1N1CCCC1`: the TGI in assay [1], in [2], in [3], in assay [4], in assay [5] and in assay [6] was more than 100 µM throughout. Besides, the TGI in assay [7], in [8], in assay [9] and in [10] was more than 100 µM throughout.
On to `Cc1ccc(C(=O)N(C(C)C)C(C)C)cc1N=NN(C)C`, for which the TGI in [1] is more than 100 µM; in [2], more than 31.6 µM; in [3], more than 100 µM; in assay [4], more than 100 µM; in assay [5], more than 100 µM; in assay [6] it was more than 100 µM. Besides, the concentration for total growth inhibition (TGI) in assay [7], in [8], in assay [9] and in [10] was more than 100 µM each time.
Take `Cc1cc(C)c(S(=O)(=O)N(CCCCN)OCCCN)c(C)c1`: the TGI is 31.9 µM in assay [2]; 31.1 µM in [3]; 34.5 µM in assay [4]; 38 µM in assay [5]; 30.7 µM in [6]; 28.6 µM in assay [7]. Moreover, the results for the TGI in assay [8], in assay [9] and in assay [11] were 31 µM, 34.4 µM and 38.3 µM, respectively.
With `CC1(C)O[C@@H](CO)[C@H]([C@@]23OC[C@H]4OC(C)(C)OC4[C@@H]2OC(C)(C)O3)O1` (some centres not stated), the TGI in assay [1], in [2], in assay [3], in assay [4], in assay [5] and in [6] was more than 100 µM each time. The TGI in assay [7], in [8], in assay [9] and in [10] was more than 100 µM in each case.
Take `CC[C@]12C=CCN3CCC4(c5cc(N=Nc6ccccc6)c(OC)cc5N(C)[C@H]4[C@@](O)(C(=O)OC)[C@@H]1OC(C)=O)[C@@H]32` (some centres not stated): the TGI in [1] stood at 32.4 µM; in assay [2] it was 33 µM; in [3], 35.8 µM; in [4], 30.2 µM; in assay [5], 45.5 µM; in [6] it was 37.9 µM. Besides, the TGI came out at 34.6 µM in assay [7], 34.2 µM in assay [8], 35.7 µM in [9] and 34.4 µM in assay [10].
With `O=C(CC(O)(C(F)(F)F)C(F)(F)F)C(CCCl)C(O)(C(F)(F)F)C(F)(F)F` (configuration not stated), the TGI in assay [1], in [2], in assay [3], in assay [5], in [6] and in assay [7] was more than 100 µM throughout. For the same molecule, the TGI in assay [8] is more than 100 µM; in [9], 67 µM; in assay [11], more than 100 µM; in [10], more than 100 µM.
Regarding `CC1=C(C(=O)OCCc2ccc([N+](=O)[O-])cc2)C(c2ccccc2[N+](=O)[O-])C(C(=O)OC(C)C)=C(C)N1` (configuration not stated), the concentration for total growth inhibition (TGI) is 17.9 µM in [1]; more than 100 µM in assay [2]; more than 100 µM in assay [3]; more than 100 µM in assay [5]; more than 100 µM in assay [6]; 9.93 µM in [7]. The TGI was 39.2 µM in [8], more than 100 µM in [9], 23.2 µM in [11] and more than 100 µM in assay [10].
Take `CCN(CC)CCO/N=C1\CC[C@H]2[C@@H]3CC=C4C[C@@H](O)CC[C@]4(C)[C@H]3CC[C@]12C`: the TGI turned out to be 31.5 µM in assay [1]; 31.1 µM in assay [2]; 58.1 µM in [3]; 26.4 µM in [5]; 31.9 µM in [6]; 40.4 µM in [7]. Also, the figures for the TGI in assay [8], in assay [9] and in [10] were more than 100 µM, more than 100 µM and 28.5 µM, respectively.
With `Cc1c2c3cc(O)ccc3nc-2n(C)c2ccccc12`, the TGI in assay [1] turned out to be 10.5 µM; in [3], 8.37 µM; in assay [4] it was 5.21 µM; in assay [5], 21.3 µM; in assay [6] it was 4.62 µM; in [7], 3.32 µM. Besides, the TGI in [8] is 6.91 µM; in assay [9], 4.38 µM; in assay [11], 4.37 µM; in assay [10], 10.5 µM.
As for `CC(C)CCC[C@@H](C)[C@H]1CC[C@H]2[C@@H]3CC=C4C[C@@H](OC(=O)c5cccc6c(=O)c7ccccc7[nH]c56)CC[C@]4(C)[C@H]3CC[C@]12C`, the TGI in assay [1], in [2], in assay [3], in assay [4], in [5] and in [6] was more than 75 µM throughout. Moreover, the TGI in assay [7], in assay [8], in assay [9] and in assay [10] was more than 75 µM in each case.
In the case of `CCOC(=O)c1ccc(C(=O)C(C(C)=O)C(=O)OC(C)(C)C)n1C` (configuration not stated), the TGI in assay [1], in [2], in assay [3], in assay [5], in assay [6] and in [7] was more than 100 µM in each case. For the same molecule, the TGI in [8], in assay [9], in assay [11] and in assay [10] was more than 100 µM in each case.
With `CN=C(Nn1cnnc1)OC`, the total growth inhibition concentration (TGI) in assay [1], in assay [3], in assay [4], in assay [5], in [6] and in assay [7] was more than 100 µM each time. For the same molecule, the total growth inhibition concentration (TGI) in assay [8], in assay [11] and in assay [10] was more than 100 µM in each case.
